Test results: patent publication US8314123B2, “5, 6, or 7-substituted -3-(hetero) arylisoquinolinamine derivatives and therapeutic use thereof” (Rexahn Pharmaceuticals, Inc., priority 2006, dated 2012)

How the values were obtained:
Format in all cases: cell-based
human cancer cell lines = experiment: Growth inhibition against the panel of human tumor cell lines (SRB), overall statements; settings: Table 3 cell lines
Experimental: (§1) Cancer cell lines to determine the effect of 5, 6, or 7-substituted-3-(hetero)arylisoquinolinamine compounds were obtained from the following sources: Human MDA-MB-231 (breast), PC3 (prostate), HCT-15 (colon), HCT116 (colon), OVCAR-3 (ovary), Caki-1 (kidney), PANC-1 (pancreas), SNB-19 (glioblastoma) and SK-MEL-28 (melanoma) from the American Type Culture Collection (ATCC) (Manassas, Va.). PC3, OVCAR-3, SK-MEL-28 and SNB-19 were grown in RPMI1640 medium (Invitrogen, Carlsbad, Calif.) supplemented with 10% fetal bovine serum (“FBS”), 1 mM sodium pyruvate, 10 mM HEPES and 100 U/ml penicillin and 100 μg/ml streptomycin (“P/S”). MDA-MB-231, Caki-1, HCT-15 (colon) and PANC-1 cells were maintained in Dulbecco's modified Eagle's medium (“DMEM”, Invitrogen) supplemented with 10% FBS, P/S and 10 mM HEPES. HCT116 cells were maintained in DMEM supplemented with 10% FBS, P/S and 10 mM HEPES for in vitro cell proliferation assay and in RPMI1640 medium supplemented with 10% FBS, 1 mM sodium pyruvate, 10 mM HEPES and P/S for in vitro cell cycle analysis. All cells were incubated at 37° C. under humidified 5% CO2.
(§2) The growth inhibition of the 5, 6, or 7-substituted-3-(hetero)arylisoquinolinamine derivatives against a variety of human tumor cells was evaluated to study the relative importance of particular substituent groups on the compounds. The 5, 6, or 7-substituted-3-(hetero)arylisoquinolinamine derivatives, prepared as described above, were tested with DMSO as a control.
(§3) The growth inhibition assay of representative 5, 6, or 7-substituted-3-(hetero)arylisoquinolinamine derivatives against human tumor cell lines was performed using the Sulforhodamine B (“SRB”) method (Skehan et al., J. National Cancer Institute, 82: 1107-1112 (1990)). Briefly, exponentially growing tumor cells were seeded into a 96-well plate at a density of 2-3×10^3 cells/well and treated with 5, 6, or 7-substituted-3-(hetero)arylisoquinolinamine compounds the next day. Triplicate wells were used for each treatment. The cells were incubated with the various compounds for 96 hours at 37° C. in a humidified 5% CO2 atmosphere. After 96-hour incubation, cells were fixed with 10% trichloroacetic acid (“TCA”), incubated for 1 hour at 4° C., and washed 3 times with tap water. Subsequently, cells were stained with 0.4% sulforhodamine B in 1% acetic acid for 30 minutes, washed 4 times with 1% acetic acid, and air-dried again. After 5 minutes agitation in 10 mM Tris solution, the absorbance of each well was measured at 530 nm using Benchmark Plus Microplate reader (Bio-Rad Laboratories, Hercules, Calif.).
(§4) To translate the OD530 values into the number of live cells in each well, the OD530 values were compared to those on standard OD530-versus-cell number curves generated for each cell line. The percent survival was calculated using the formula: % Survival=live cell number [test]/live cell number [control]×100
(§5) The IC50 values were calculated by non-linear regression analysis.
Using QSAR and medicinal chemistry techniques, a large number of compounds, including the compounds shown in Table 1-2 above, were synthesized. The synthesized compounds were screened against at least four cancer cell lines, PANC-1, MDA-MB-231, HCT116 and Caki-1, at approximately 1 μM concentration. Compounds showing activity in at least one of these cell lines were selected for further screening. From these compounds, thirty compounds were selected for further evaluation as broad-spectrum anti-proliferative agents as shown in the following Table 3.

SK-MEL-28 (melanoma) = experiment: In vitro cell proliferation assay (SRB), SK-MEL-28; settings: Homo sapiens, SRB method, 96 hours, read-out: Inhibition of cell growth (IC50, μM) SK-MEL-28
Experimental: as §1, §2, §3, §4, §5

MDA-MB-231 (breast) = experiment: In vitro cell proliferation assay (SRB), MDA-MB-231; settings: Homo sapiens, SRB method, 96 hours, read-out: Inhibition of cell growth (IC50, μM) MDA-MB-231
Experimental: as §1, §2, §3, §4, §5

PANC-1 (pancreas) = experiment: In vitro cell proliferation assay (SRB), PANC-1; settings: Homo sapiens, SRB method, 96 hours, read-out: Inhibition of cell growth (IC50, μM) PANC-1
Experimental: as §1, §2, §3, §4, §5

HCT116 (colon) = experiment: In vitro cell proliferation assay (SRB), HCT116; settings: Homo sapiens, HCT-116; SRB method, 96 hours; Table 3; read-out: Inhibition of cell growth (IC50, μM) HCT116
Experimental: as §1, §2, §3, §4, §5

PC3 (prostate) = experiment: In vitro cell proliferation assay (SRB), PC3; settings: Homo sapiens; SRB method, 96 hours; read-out: Inhibition of cell growth (IC50, μM) PC3
Experimental: as §1, §2, §3, §4, §5

OVCAR-3 (ovary) = experiment: In vitro cell proliferation assay (SRB), OVCAR3; settings: Homo sapiens, SRB method, 96 hours, read-out: Inhibition of cell growth (IC50, μM) OVCAR3
Experimental: as §1, §2, §3, §4, §5

Caki-1 (kidney) = experiment: In vitro cell proliferation assay (SRB), Caki-1; settings: Homo sapiens, SRB method, 96 hours, read-out: Inhibition of cell growth (IC50, μM) Caki-1
Experimental: as §1, §2, §3, §4, §5

SNB-19 (glioblastoma) = experiment: In vitro cell proliferation assay (SRB), SNB19; settings: Homo sapiens, SRB method, 96 hours, read-out: Inhibition of cell growth (IC50, μM) SNB19
Experimental: as §1, §2, §3, §4, §5

SMILES | activity in growth inhibition of human cancer cell compared to Compound 23 (human cancer cell lines) | IC50 (SK-MEL-28 (melanoma)) [µM] | IC50 (MDA-MB-231 (breast)) [µM] | IC50 (PANC-1 (pancreas)) [µM] | IC50 (HCT116 (colon)) [µM] | IC50 (PC3 (prostate)) [µM] | IC50 (OVCAR-3 (ovary)) [µM] | IC50 (Caki-1 (kidney)) [µM] | IC50 (SNB-19 (glioblastoma)) [µM]
Cc1ccc(Cl)cc1-c1cc2ccc(Cl)cc2c(N)n1 [Compound 10, 7-chloro-3-(5-chloro-2-methylphenyl)isoquinolin-1-amine] | equal or better activity | 0.14 | 0.11 | 0.17 | 0.14 | 0.26 | 0.071 | 0.15 | 0.19
COc1ccc(-c2cc3ccc(N(C)C)cc3c(N)n2)cc1OC.Cl [Compound 15, 3-(3,4-Dimethoxyphenyl)-N^7,N^7-dimethylisoquinoline-1,7-diamine hydrochloride] | equal or better activity | 0.33 | 0.15 | 0.19 | 0.18 | 0.23 | 0.14 | 0.17 | 0.25
COc1cc(OC)cc(-c2cc3ccc(N(C)C)cc3c(N)n2)c1.Cl [Compound 16, 3-(3,5-Dimethoxyphenyl)-N^7,N^7-dimethylisoquinoline-1,7-diamine hydrochloride] | equal or better activity | 0.045 | 0.027 | 0.026 | 0.029 | 0.048 | 0.025 | 0.038 | 0.057
COc1cccc(-c2cc3cc(N(C)C)ccc3c(N)n2)c1 [Compound 21, 3-(3-Methoxyphenyl)-N^6,N^6-dimethyl-isoquinoline-1,6-diamine] | equal or better activity | 0.11 | 0.059 | 0.11 | 0.064 | 0.19 | 0.071 | 0.068 | 0.094
COc1cccc(-c2cc3cc(C)ccc3c(N)n2)c1 [Compound 25, 3-(3-Methoxyphenyl)-6-methylisoquinolin-1-amine] | equal or better activity | 0.34 | 0.14 | 0.31 | 0.19 | 0.25 | 0.18 | 0.13 | 0.29
Cc1ccc2c(N)nc(-c3ccc4c(c3)OCO4)cc2c1 [Compound 28, 3-(Benzo[d][1,3]dioxol-6-yl)-6-methylisoquinolin-1-amine] | equal or better activity | 0.22 | 0.13 | 0.22 | 0.16 | 0.19 | 0.16 | 0.11 | 0.23
COc1ccc(-c2cc3cc(C)ccc3c(N)n2)c(C)c1 [Compound 31, 3-(4-Methoxy-2-methylphenyl)-6-methylisoquinolin-1-amine] | equal or better activity | 0.29 | 0.15 | 0.24 | 0.17 | 0.25 | 0.17 | 0.12 | 0.28
Cc1ccc2c(N)nc(-c3c(C)cccc3C)cc2c1 [Compound 34, 6-Methyl-3-(2,6-dimethylphenyl)isoquinolin-1-amine] | equal or better activity | 0.23 | 0.14 | 0.21 | 0.17 | 0.24 | 0.16 | 0.12 | 0.24
Cc1ccc(-c2cc3cc(C)ccc3c(N)n2)cc1 [Compound 36, 6-Methyl-3-p-tolylisoquinolin-1-amine] | equal or better activity | 0.25 | 0.15 | 0.2 | 0.18 | 0.22 | 0.15 | 0.16 | 0.21
COc1ccc(-c2cc3ccc(C)cc3c(N)n2)c(C)c1 [Compound 42, 3-(4-Methoxy-2-methylphenyl)-7-methylisoquinolin-1-amine] | equal or better activity | 0.21 | 0.079 | 0.18 | 0.12 | 0.2 | 0.13 | 0.065 | 0.2
Cc1ccc2cc(-c3ccc4c(c3)OCO4)nc(N)c2c1 [Compound 45, 3-(Benzo[d][1,3]dioxol-6-yl)-7-methylisoquinolin-1-amine] | equal or better activity | 0.42 | 0.15 | 0.37 | 0.18 | 0.25 | 0.23 | 0.13 | 0.38
Cc1ccc2cc(-c3ccccc3C)nc(N)c2c1 [Compound 48, 7-Methyl-3-o-tolylisoquinolin-1-amine] | equal or better activity | 0.18 | 0.075 | 0.2 | 0.12 | 0.26 | 0.1 | 0.14 | 0.16
